# Experimental data as given in ChEMBL document CHEMBL3879902, “Compounds and methods for kinase modulation, and indications thereof” (2012).
# Assay: Aqueous solubility of the compound in simulated intestinal fluid at pH 4.5
# Type: ADME
# Details: simulated gi fluid
row,solubility,SMILES
1,Insoluble,CCCS(=O)(=O)Nc1ccc(F)c(C(=O)c2c[nH]c3ncc(-c4ccc(S(=O)(=O)N5CCOCC5)cc4)cc23)c1F
2,Insoluble,CCCS(=O)(=O)Nc1ccc(F)c(C(=O)c2c[nH]c3ncc(-c4ccc(OC)nc4OC)cc23)c1F
3,Insoluble,CCCS(=O)(=O)Nc1ccc(F)c(C(=O)c2c[nH]c3ncc(-c4cnn(Cc5ccccc5)c4)cc23)c1F
4,Insoluble,N#Cc1cnc2[nH]cc(C(=O)c3cccc(NS(=O)(=O)c4cc(F)ccc4F)c3F)c2c1
5,Soluble,O=C(c1c(F)ccc(NS(=O)(=O)c2c(F)cccc2F)c1F)c1c[nH]c2ncc(Cl)cc12
6,Soluble,CCCS(=O)(=O)Nc1ccc(F)c(C(=O)c2c[nH]c3ncc(-c4ccc(OCCN5CCCC5)nc4)cc23)c1F
7,Insoluble,CCCS(=O)(=O)Nc1ccc(F)c(C(=O)c2c[nH]c3ncc(-c4ccc(NC(C)=O)nc4)cc23)c1F
8,Insoluble,COc1cnc2[nH]cc(C(=O)c3c(F)ccc(NS(=O)(=O)c4ccccc4F)c3F)c2c1
9,Insoluble,COc1ncc(-c2cnc3[nH]cc(C(=O)c4c(F)ccc(NS(=O)(=O)c5cccc(F)c5)c4F)c3c2)cn1
10,Insoluble,C#Cc1cnc2[nH]cc(C(=O)c3c(F)ccc(NS(=O)(=O)CCC)c3F)c2c1
11,Insoluble,N#Cc1cnc2[nH]cc(C(=O)c3c(F)ccc(NS(=O)(=O)c4ccccc4)c3F)c2c1
12,Insoluble,CCCS(=O)(=O)Nc1cccc(C(=O)c2c[nH]c3ncc(-c4cnc(OC)nc4)cc23)c1F
13,Insoluble,CCCS(=O)(=O)Nc1ccc(F)c(C(=O)c2c[nH]c3ncc(-c4ccc(S(C)(=O)=O)cc4)cc23)c1F
14,Insoluble,Cc1cnc2[nH]cc(C(=O)c3c(F)ccc(NS(=O)(=O)c4c(F)cccc4F)c3F)c2c1
15,Soluble,CCCS(=O)(=O)Nc1ccc(F)c(C(=O)c2c[nH]c3ncc(-c4cnc(C)nc4)cc23)c1F
16,Soluble,CCCS(=O)(=O)Nc1ccc(F)c(C(=O)c2c[nH]c3ncc(-c4ccc(C)nc4)cc23)c1F

# Assay: Aqueous solubility of the compound in simulated intestinal fluid at pH 6.8
# Type: ADME
# Details: simulated gi fluid
row,solubility,SMILES
1,Insoluble,CCCS(=O)(=O)Nc1ccc(F)c(C(=O)c2c[nH]c3ncc(-c4ccc(S(=O)(=O)N5CCOCC5)cc4)cc23)c1F
2,Insoluble,CCCS(=O)(=O)Nc1ccc(F)c(C(=O)c2c[nH]c3ncc(-c4ccc(OC)nc4OC)cc23)c1F
3,Insoluble,CCCS(=O)(=O)Nc1ccc(F)c(C(=O)c2c[nH]c3ncc(-c4cnn(Cc5ccccc5)c4)cc23)c1F
4,Soluble,N#Cc1cnc2[nH]cc(C(=O)c3cccc(NS(=O)(=O)c4cc(F)ccc4F)c3F)c2c1
5,Soluble,O=C(c1c(F)ccc(NS(=O)(=O)c2c(F)cccc2F)c1F)c1c[nH]c2ncc(Cl)cc12
6,Insoluble,CCCS(=O)(=O)Nc1ccc(F)c(C(=O)c2c[nH]c3ncc(-c4ccc(OCCN5CCCC5)nc4)cc23)c1F
7,Insoluble,CCCS(=O)(=O)Nc1ccc(F)c(C(=O)c2c[nH]c3ncc(-c4ccc(NC(C)=O)nc4)cc23)c1F
8,Insoluble,COc1cnc2[nH]cc(C(=O)c3c(F)ccc(NS(=O)(=O)c4ccccc4F)c3F)c2c1
9,Insoluble,COc1ncc(-c2cnc3[nH]cc(C(=O)c4c(F)ccc(NS(=O)(=O)c5cccc(F)c5)c4F)c3c2)cn1
10,Insoluble,C#Cc1cnc2[nH]cc(C(=O)c3c(F)ccc(NS(=O)(=O)CCC)c3F)c2c1
11,Soluble,N#Cc1cnc2[nH]cc(C(=O)c3c(F)ccc(NS(=O)(=O)c4ccccc4)c3F)c2c1
12,Insoluble,CCCS(=O)(=O)Nc1cccc(C(=O)c2c[nH]c3ncc(-c4cnc(OC)nc4)cc23)c1F
13,Insoluble,CCCS(=O)(=O)Nc1ccc(F)c(C(=O)c2c[nH]c3ncc(-c4ccc(S(C)(=O)=O)cc4)cc23)c1F
14,Soluble,Cc1cnc2[nH]cc(C(=O)c3c(F)ccc(NS(=O)(=O)c4c(F)cccc4F)c3F)c2c1
15,Soluble,CCCS(=O)(=O)Nc1ccc(F)c(C(=O)c2c[nH]c3ncc(-c4cnc(C)nc4)cc23)c1F
16,Insoluble,CCCS(=O)(=O)Nc1ccc(F)c(C(=O)c2c[nH]c3ncc(-c4ccc(C)nc4)cc23)c1F

# Assay: Aqueous solubility of the compound in hepes buffer at pH 7.4
# Type: physicochemical
# Details: not given
row,solubility,SMILES
1,Insoluble,CCCS(=O)(=O)Nc1ccc(F)c(C(=O)c2c[nH]c3ncc(-c4ccc(S(=O)(=O)N5CCOCC5)cc4)cc23)c1F
2,Insoluble,CCCS(=O)(=O)Nc1ccc(F)c(C(=O)c2c[nH]c3ncc(-c4ccc(OC)nc4OC)cc23)c1F
3,Insoluble,CCCS(=O)(=O)Nc1ccc(F)c(C(=O)c2c[nH]c3ncc(-c4cnn(Cc5ccccc5)c4)cc23)c1F
4,Soluble,N#Cc1cnc2[nH]cc(C(=O)c3cccc(NS(=O)(=O)c4cc(F)ccc4F)c3F)c2c1
5,Soluble,O=C(c1c(F)ccc(NS(=O)(=O)c2c(F)cccc2F)c1F)c1c[nH]c2ncc(Cl)cc12
6,Soluble,CCCS(=O)(=O)Nc1ccc(F)c(C(=O)c2c[nH]c3ncc(-c4ccc(OCCN5CCCC5)nc4)cc23)c1F
7,Insoluble,CCCS(=O)(=O)Nc1ccc(F)c(C(=O)c2c[nH]c3ncc(-c4ccc(NC(C)=O)nc4)cc23)c1F
8,Soluble,COc1cnc2[nH]cc(C(=O)c3c(F)ccc(NS(=O)(=O)c4ccccc4F)c3F)c2c1
9,Soluble,COc1ncc(-c2cnc3[nH]cc(C(=O)c4c(F)ccc(NS(=O)(=O)c5cccc(F)c5)c4F)c3c2)cn1
10,Insoluble,C#Cc1cnc2[nH]cc(C(=O)c3c(F)ccc(NS(=O)(=O)CCC)c3F)c2c1
11,Soluble,N#Cc1cnc2[nH]cc(C(=O)c3c(F)ccc(NS(=O)(=O)c4ccccc4)c3F)c2c1
12,Insoluble,CCCS(=O)(=O)Nc1cccc(C(=O)c2c[nH]c3ncc(-c4cnc(OC)nc4)cc23)c1F
13,Insoluble,CCCS(=O)(=O)Nc1ccc(F)c(C(=O)c2c[nH]c3ncc(-c4ccc(S(C)(=O)=O)cc4)cc23)c1F
14,Soluble,Cc1cnc2[nH]cc(C(=O)c3c(F)ccc(NS(=O)(=O)c4c(F)cccc4F)c3F)c2c1
15,Soluble,CCCS(=O)(=O)Nc1ccc(F)c(C(=O)c2c[nH]c3ncc(-c4cnc(C)nc4)cc23)c1F
16,Insoluble,CCCS(=O)(=O)Nc1ccc(F)c(C(=O)c2c[nH]c3ncc(-c4ccc(C)nc4)cc23)c1F

# Assay: Aqueous solubility of the compound in simulated gastric fluid at pH 1.5
# Type: ADME
# Details: simulated gi fluid
row,solubility,SMILES
1,Insoluble,CCCS(=O)(=O)Nc1ccc(F)c(C(=O)c2c[nH]c3ncc(-c4ccc(S(=O)(=O)N5CCOCC5)cc4)cc23)c1F
2,Insoluble,CCCS(=O)(=O)Nc1ccc(F)c(C(=O)c2c[nH]c3ncc(-c4ccc(OC)nc4OC)cc23)c1F
3,Insoluble,CCCS(=O)(=O)Nc1ccc(F)c(C(=O)c2c[nH]c3ncc(-c4cnn(Cc5ccccc5)c4)cc23)c1F
4,Insoluble,N#Cc1cnc2[nH]cc(C(=O)c3cccc(NS(=O)(=O)c4cc(F)ccc4F)c3F)c2c1
5,Soluble,O=C(c1c(F)ccc(NS(=O)(=O)c2c(F)cccc2F)c1F)c1c[nH]c2ncc(Cl)cc12
6,Insoluble,CCCS(=O)(=O)Nc1ccc(F)c(C(=O)c2c[nH]c3ncc(-c4ccc(OCCN5CCCC5)nc4)cc23)c1F
7,Soluble,CCCS(=O)(=O)Nc1ccc(F)c(C(=O)c2c[nH]c3ncc(-c4ccc(NC(C)=O)nc4)cc23)c1F
8,Insoluble,COc1cnc2[nH]cc(C(=O)c3c(F)ccc(NS(=O)(=O)c4ccccc4F)c3F)c2c1
9,Insoluble,COc1ncc(-c2cnc3[nH]cc(C(=O)c4c(F)ccc(NS(=O)(=O)c5cccc(F)c5)c4F)c3c2)cn1
10,Insoluble,C#Cc1cnc2[nH]cc(C(=O)c3c(F)ccc(NS(=O)(=O)CCC)c3F)c2c1
11,Insoluble,N#Cc1cnc2[nH]cc(C(=O)c3c(F)ccc(NS(=O)(=O)c4ccccc4)c3F)c2c1
12,Insoluble,CCCS(=O)(=O)Nc1cccc(C(=O)c2c[nH]c3ncc(-c4cnc(OC)nc4)cc23)c1F
13,Insoluble,CCCS(=O)(=O)Nc1ccc(F)c(C(=O)c2c[nH]c3ncc(-c4ccc(S(C)(=O)=O)cc4)cc23)c1F
14,Soluble,Cc1cnc2[nH]cc(C(=O)c3c(F)ccc(NS(=O)(=O)c4c(F)cccc4F)c3F)c2c1
15,Soluble,CCCS(=O)(=O)Nc1ccc(F)c(C(=O)c2c[nH]c3ncc(-c4cnc(C)nc4)cc23)c1F
16,Soluble,CCCS(=O)(=O)Nc1ccc(F)c(C(=O)c2c[nH]c3ncc(-c4ccc(C)nc4)cc23)c1F
